# Measurements taken from patent US10858331B1, “Ester nitrates derivatives of aromatic aldehydes with multiple pharmalogic properties to treat sickle cell disease” (VIRGINIA COMMONWEALTH UNIVERSITY, priority 2013, dated 2020).
# What was measured:
# [1] = NO release study (Griess assay) in presence of L-cysteine; details: for NO2− release after 16 hours / NO2− release after 1 hour: 2 mM compound solution mixed with 36 mM L-cysteine, phosphate buffer pH 7.4, 37° C., anaerobic; for NO release in the form of NO2− (rank among the compounds): comparison of the four nitrate esters
# Procedure: Griess assay was performed on the left-shifting nitrate ester compounds (TD-1, […], TD-8-1 and, TD-9-1) to measure the release of NO. Griess assay is a colorimetric assay, used for detection of NO in the form of nitrite ions (NO2^−). NO released in solution is highly unstable, with a half-life of 1 to 30 s. It gets rapidly oxidized to NO2^− which is detected by the Griess reagent. In this method, NO2^−, first reacts with the sulfanilamide present in the reagent to form a transient diazonium salt. […] Sodium nitrite (NaNO2) was used as a standard for the Griess assay. NaNO2 samples in deionized water were prepared of concentrations within the linear range of the assay (1-100 μM). The samples were incubated for 30 min at 37° C., after which Griess reagent was added and absorbance was measured at 540 nm. The measured absorbances were used to obtain a standard curve (FIG. 3). For the measurement of NO2^− release for all the test compounds (TD-1, TD-7-1, TD-8-1 and TD-9-1), the absorbances were extrapolated from the standard NaNO2 curve.
# In this assay, a solution of the test compound (1 mL of a 2 mM solution in 0.1 M phosphate buffer (pH 7.4)) was mixed thoroughly with a freshly prepared solution of L-cysteine (1 mL of a 36 mM solution in 0.1 M phosphate buffer, pH 7.4), and incubated at 37° C., for 1 and 16 h under anaerobic conditions. After exposure to air for 10 min at 25° C., an aliquot of the Griess reagent (1 mL) [freshly prepared by mixing equal volumes of 1.0% sulfanilamide (prepared and stored in aqueous 5% phosphoric acid) and 0.1% N-naphthylethylenediamine dihydrochloride in water] was added to an equal volume (1 mL) of each incubation solution after mixing. After 10 min, absorbance was measured at 540 nm using a Hewlett Packard (Agilent) 8453 UV-visible Spectroscopy. NaNO2 solutions of 1-100 μM concentrations were used to prepare a standard nitrite curve of absorbance […] versus concentration (μM). The NO released (quantitated as NO2^− release in μM) was calculated from the standard nitrite curve by extrapolation of the absorbance. […]
# Hb = target: T1, Hb (Homo sapiens, UniProt P68871+P69905); experiment: Oxygen equilibrium curve (OEC) study with normal whole blood (AA); format: cell-based; details: 2 mM compound, 1.5 h incubation; for P50: 37° C.; for ΔP50: versus DMSO control
# T1 construct: normal whole blood (AA); from tissue; host or cells: normal whole blood (AA), red blood cells
# Procedure: (§1) Studies were performed on compounds TD-7, TD-7-1, TD-8, TD-8-1, TD-9 and TD-9-1 using 100 mM stock solution in DMSO and normal whole blood (AA). TD-7, TD-8 and TD-9 are compounds with a hydroxymethyl group on the pyridine ring, while TD-7-1, TD-8-1 and TD-9-1 are the respective nitrate ester derivatives. The whole blood samples had hematocrit values ranging from 29-36%, and cell-free purified Hb of 10-12 g/dL in the absence or presence of effectors solubilized in DMSO at 2 mM or in some cases with varying compound concentration. The blood samples were incubated in an IL 237 tonometer (Instrumentation Laboratories, Inc., Lexington, Mass.) for about 5-7 min at 37° C. against a gas mixture containing O2 concentrations of 0.804%, 2.935% and 5.528% and allowed to equilibrate at O2 tensions of 6, 20 and 40 mmHg. After equilibration, the sample was removed via syringe and aspirated into a ABL 700 series table top automated blood gas analyzer (Radiometer America, Inc., Westlake, Ohio) to determine total hemoglobin (tHb), hematocrit (Hct), pH, pCO2, partial pressure of oxygen (pO2), and the Hb oxygen saturation values (sO2). Similar procedures were followed for concentration and time dependence studies. The measured values of pO2 and sO2 at each oxygen saturation level were then subjected to a non-linear regression analysis using the program Scientist (Micromath, Salt Lake City, Utah) with the following equation: […]
# This equation was used to calculate P50 and Hill coefficient (N) values. Corresponding control experiments without the test compound (P50control) but containing DMSO were also performed.
# cell-free Hb = target: T2, cell-free Hb (Homo sapiens, UniProt P68871+P69905); experiment: OEC study with normal cell-free Hb; format: biochemical; details: cell-free Hb 12 mg/mL, 2 mM compound; for N (Hill coefficient) / P50: n = 1; for ΔP50: versus control P50 12.5
# T2 construct: Hemoglobin was prepared from centrifuging human blood; from tissue; host or cells: human blood (red cells lysed, Hb purified on DEAE sephacel)
# Procedure: as §1
# Hemoglobin was prepared from centrifuging human blood at 2500 rpms for 20 min at 4° C. The supernatant solution, debris and plasma were discarded from the centrifuge bottles, leaving behind RBCs. The RBCs were washed thrice with an excess volume of 0.9% NaCl, and once with 1.0% NaCl, each time centrifuging and discarding the supernatant solution. The RBCs were pooled together into a chilled flask and hemolyzed to free Hb by adding 1-2 volume excess of 50 mM Tris buffer, pH 8.6 (containing EDTA). The mixture was allowed to stand in ice for 30 min with occasional stirring. The Hb solution was centrifuged at 10,000 rpm for 2 h at 4° C. The supernatant Hb solution was pooled into a chilled flask and NaCl (40-60 mg/mL Hb solution) was slowly added with stirring. Hemoglobin solution was centrifuged at 10,000 rpm for 2 h at 4° C. to remove any cell stroma remnants. The clear supernatant Hb solution was pooled into a chilled flask and the “syrupy” pellet was discarded. Hemoglobin solution was dialyzed against 50 mM Tris buffer, pH 8.6 (containing EDTA) at 4° C. to remove NaCl and/or other low molecular weight impurities. Strips of standard cellulose dialysis tubing that had been washed 3-4 times and boiled for 10 min in deionized water were used for dialysis. The dialyzed Hb was further purified by ion-exchange chromatography using DEAE sephacel to exclude 2,3-DPG. The resin was equilibrated with 50 mM Tris buffer, pH 8.6, and the Hb solution was run through the column with 50 mM Tris buffer, pH 8.6 (containing EDTA). The pooled fractions were concentrated with an Amicon stirred cell (Amicon, Model 402), to a final HbA concentration of about 80-120 mg/mL. Concentrated HbA was stored at −80° C.
# As a result of the low left-shifting activities of TD-8 and TD-9, as well as the nitrate ester derivatives, we further evaluated the activity of the compounds TD-1, TD-7, TD-7-1, TD-8, and TD-9 using cell-free Hb (devoid of any proteins, enzymes, plasma and cell membranes) to determine whether plasma protein or RBC membrane could have any effect on compound biological activity. Previous studies have shown limited effect of plasma protein and RBC membrane on SHMF activity. The same tonometry procedure used on whole blood was used with the cell-free hemoglobin using 2 mM compound and 12 mg/mL of Hb.
# SS cells = experiment: In vitro RBC anti-sickling (morphological) study with SS cells; format: cell-based, human
# Procedure: In vitro RBC morphological (anti-sickling) analysis was conducted at the Children's Hospital of Philadelphia (by Drs. Toshio Asakura and Osheiza Abdulmalik). The anti-sickling effects of 5HMF, TD-7 HCl, TD-7, TD-1, and TD-7-1 were studied by incubating suspensions of SS cells in the absence or presence of three different concentrations of the effectors in the presence of air for 1 h at 37° C. followed by incubation under 4% oxygen at 37° C. for 5 h. All samples were pre-incubated for 1 h with various compounds and then incubated under 4% O2 for 5 h. […] Table 5 represents the concentrations of the effectors along with the % inhibition of sickling cells. The hemolysates that had been prepared from SS cells after incubation with test compounds were also subjected to cation-exchange HPLC as previously reported (Abdulmalik et al., 2005).
# T1 sequence (P69905 2-142 limits assumed): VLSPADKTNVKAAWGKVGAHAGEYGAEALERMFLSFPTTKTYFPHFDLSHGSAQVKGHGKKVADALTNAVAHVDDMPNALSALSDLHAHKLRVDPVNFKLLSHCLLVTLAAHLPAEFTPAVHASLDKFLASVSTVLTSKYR
# T1 sequence (P68871 2-147 limits assumed): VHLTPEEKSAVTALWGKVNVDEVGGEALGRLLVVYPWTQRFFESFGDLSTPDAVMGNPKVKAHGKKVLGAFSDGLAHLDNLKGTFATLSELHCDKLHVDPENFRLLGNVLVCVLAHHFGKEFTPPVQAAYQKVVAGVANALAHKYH
# T2 sequence (P69905 2-142 limits assumed): as the sequence (P69905 2-142 limits assumed) above
# T2 sequence (P68871 2-147 limits assumed): as the sequence (P68871 2-147 limits assumed) above
SMILES,NO2− release after 16 hours [1] [µM],N (Hill coefficient) (Hb),P50 (Hb),ΔP50 (Hb) [mmHg],N (Hill coefficient) (cell-free Hb),P50 (cell-free Hb) [mmHg],ΔP50 (cell-free Hb) [mmHg],"inhibition at 500 µM (SS cells; Homo sapiens, 0.5 mM, SS cells, 1 h air then 4% O2, 37° C., 5 h, read-out: Inhibition of sickled cells) [%]","inhibition at 1000 µM (SS cells; Homo sapiens, 1.0 mM, SS cells, 1 h air then 4% O2, 37° C., 5 h, read-out: Inhibition of sickled cells) [%]","inhibition at 2000 µM (SS cells; Homo sapiens, 2.0 mM, SS cells, 1 h air then 4% O2, 37° C., 5 h, read-out: Inhibition of sickled cells) [%]",Hemolysis of RBC (SS cells; at higher drug concentrations),NO2− release after 1 hour [1] [µM],"Anti-sickling effect (in words) (SS cells; SS cells, 4% O2, 5 h, concentration not given, in comparison with 5HMF)",NO release in the form of NO2− (rank among the compounds) [1]
"COc1ccc(C=O)c(OCc2cccc(CO[N+](=O)[O-])n2)c1 [TD-9-1, (6-((2-Formyl-5-methoxyphenoxy)methyl)pyridin-2-yl)methyl nitrate]",78.66,1.9^d†,28.6^d† mmHg,−2.7,,,,,,,,,,
"COc1ccc(OCc2cccc(CO[N+](=O)[O-])n2)c(C=O)c1 [TD-7-1, (6-((2-Formyl-4-methoxyphenoxy)methyl)pyridin-2-yl)methyl nitrate]",59.25,1.7 ± 0.1^c†,23.4 ± 1.6^c† mmHg,−7.9,2.1,7.7,−3.9,72,100,100,hemolyzed the RBC at higher drug concentrations,7.61,,
"O=Cc1ccc(CO[N+](=O)[O-])o1 [TD-1, 5-Nitrooxymethyl furfural]",,1.9 ± 0.1^c†,27.4 ± 2.3^c† mmHg,−3.9,2.0,8.4,−4.1,,,,,4.02,only a modest decrease in the anti-sickling effect,least release
"COc1ccc(C=O)cc1OCc1cccc(CO[N+](=O)[O-])n1 [TD-8-1, (6-((5-Formyl-2-methoxyphenoxy)methyl)pyridin-2-yl)methyl nitrate]",102.54,2.1^d†,30.8^d† mmHg,−0.5,,,,,,,,,,most release
